Measurements reported in patent publication US11192869B2, “CFTR regulators and methods of use thereof” (THE REGENTS OF THE UNIVERSITY OF CALIFORNIA, priority 2015, dated 2021).
Entries after “also recorded” stand apart in the source; their conditions may differ.

Legend:
[1] = biological target: T1, human wild-type CFTR (Homo sapiens, UniProt P13569); experiment: Short-circuit current in FRT cells expressing wild-type human CFTR; assay type: cell-based; settings: short-circuit current, wild-type CFTR
T1 construct: expressed in transfected cells
T1 sequence (P13569 whole entry): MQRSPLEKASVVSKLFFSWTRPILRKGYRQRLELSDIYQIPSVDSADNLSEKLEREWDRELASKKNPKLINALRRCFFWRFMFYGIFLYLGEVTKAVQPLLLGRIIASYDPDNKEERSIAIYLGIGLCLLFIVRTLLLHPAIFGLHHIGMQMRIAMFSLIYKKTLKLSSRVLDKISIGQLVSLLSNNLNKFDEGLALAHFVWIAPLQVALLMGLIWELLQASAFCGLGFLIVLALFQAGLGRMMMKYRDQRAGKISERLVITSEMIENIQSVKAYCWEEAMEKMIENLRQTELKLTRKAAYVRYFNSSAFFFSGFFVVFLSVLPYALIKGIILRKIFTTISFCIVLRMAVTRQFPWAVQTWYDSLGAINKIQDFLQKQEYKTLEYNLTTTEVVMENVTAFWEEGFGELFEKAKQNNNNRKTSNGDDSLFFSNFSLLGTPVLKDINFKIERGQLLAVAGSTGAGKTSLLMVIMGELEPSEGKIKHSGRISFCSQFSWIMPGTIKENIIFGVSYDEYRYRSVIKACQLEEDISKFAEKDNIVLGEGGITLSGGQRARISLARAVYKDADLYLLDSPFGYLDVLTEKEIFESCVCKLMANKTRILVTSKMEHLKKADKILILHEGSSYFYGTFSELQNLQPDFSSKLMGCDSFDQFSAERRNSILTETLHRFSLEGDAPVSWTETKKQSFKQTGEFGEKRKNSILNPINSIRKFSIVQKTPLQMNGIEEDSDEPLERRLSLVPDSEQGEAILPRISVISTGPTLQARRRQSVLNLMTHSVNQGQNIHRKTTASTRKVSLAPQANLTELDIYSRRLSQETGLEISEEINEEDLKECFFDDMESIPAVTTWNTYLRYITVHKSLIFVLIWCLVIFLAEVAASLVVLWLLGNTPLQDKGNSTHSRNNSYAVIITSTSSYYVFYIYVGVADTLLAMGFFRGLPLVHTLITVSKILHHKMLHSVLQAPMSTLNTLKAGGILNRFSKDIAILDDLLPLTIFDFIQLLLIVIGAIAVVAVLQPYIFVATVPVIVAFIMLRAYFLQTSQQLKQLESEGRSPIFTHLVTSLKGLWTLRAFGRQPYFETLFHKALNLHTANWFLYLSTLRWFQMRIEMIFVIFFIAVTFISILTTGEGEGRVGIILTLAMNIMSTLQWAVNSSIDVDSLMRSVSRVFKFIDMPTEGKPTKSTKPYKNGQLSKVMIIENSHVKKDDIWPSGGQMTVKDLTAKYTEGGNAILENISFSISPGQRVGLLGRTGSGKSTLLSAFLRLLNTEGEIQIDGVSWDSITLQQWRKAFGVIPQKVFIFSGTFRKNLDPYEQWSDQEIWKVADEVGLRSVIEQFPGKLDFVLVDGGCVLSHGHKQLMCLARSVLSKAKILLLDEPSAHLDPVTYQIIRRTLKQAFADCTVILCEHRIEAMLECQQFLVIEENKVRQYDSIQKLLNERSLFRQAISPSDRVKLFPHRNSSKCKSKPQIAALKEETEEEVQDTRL
Procedure: Short-circuit current measurement. Short-circuit current was measured in FRT cells stably expressing wild-type human CFTR cultured on porous filters as described. The basolateral solution contained 130 mM NaCl, 2.7 mM KCl, 1.5 mM KH2PO4, 1 mM CaCl2, 0.5 mM MgCl2, 10 mM glucose, and 10 mM Na-HEPES (pH 7.3, 37° C.). In the apical solution 65 mM NaCl was replaced by Na gluconate, and CaCl2 was increased to 2 mM, and the basolateral membrane was permeabilized with 250 μg/ml amphotericin B. Short-circuit current was measured in freshly harvested adult mouse colon at 37° C. using symmetrical Krebs-bicarbonate buffer.
Short-circuit current. Fischer rat thyroid (FRT) cells stably expressing wild-type human CFTR were cultured on Snapwell inserts (Corning Costar, Corning N.Y., USA) for short-circuit current (Isc) measurements. After 6-9 days in culture, when the transepithelial resistance was >1000 Ω/cm^2, the inserts were mounted in an Ussing chamber system (World Precision Instruments, Sarasota, Fla., USA). The basolateral solution contained 130 mM NaCl, 2.7 mM KCl, 1.5 mM KH2PO4, 1 mM CaCl2, 0.5 mM MgCl2, 10 mM glucose, and 10 mM Na-HEPES (pH 7.3). In the apical bathing solution, 65 mM NaCl was replaced by Na gluconate, and CaCl2 was increased to 2 mM. Both solutions were bubbled with air and maintained at 37° C. The basolateral membrane was permeabilized with 250 μg/ml amphotericin B (26, 27). Hemichambers were connected to a DVC-1000 voltage clamp via Ag/AgCl electrodes and 3 M KCl agar bridges for Isc recording.

[2] = test system: mid-jejunal loops of cystic fibrosis mice; experiment: In vivo intestinal fluid absorption, closed mid-jejunal loops of CF mice; design: species or system mouse; settings: 30 min
Procedure: In vivo intestinal secretion and absorption. Mice (wildtype or CF) were given access to 5% dextrose water but not solid food for 24 h before experiments. Mice were anesthetized with isoflurane and body temperature was maintained during surgery at 36-38° C. using a heating pad. A small abdominal incision was made to expose the small intestine, and closed mid-jejunal loops (length 2-3 cm) were isolated by sutures. Loops were injected with 100 μL vehicle alone or […] CFTRact-J027 in vehicle. The abdominal incision was closed with sutures, and mice were allowed to recover from anesthesia. Intestinal loops were removed at 90 min and loop length and weight were measured to quantify fluid secretion. Intestinal absorption was measured in CF mice (to prevent secretion) as described above, except that the loops were removed at 0 or 30 min. Absorption was calculated as 1-(loop weight at 0 min−loop weight at 30 min)/loop weight at 0 min.
In vivo intestinal secretion and absorption. […] Intestinal loops were removed at 90 min and loop length and weight were measured to quantify fluid secretion. Intestinal absorption was measured in CF mice (to prevent secretion) as described above, except that the loops were removed at 0 or 30 min. Absorption was calculated as 1-(loop weight at 0 min−loop weight at 30 min)/loop weight at 0 min.

[3] = test system: cAMP; experiment: cAMP GloSensor luminescence assay in FRT cells; assay type: cell-based, rat; settings: 5 μM, 10 min
Procedure: cAMP assay. Intracellular cAMP activity was measured using a GloSensor luminescence assay (Promega Corp., Madison, Wisconson, USA). FRT null cells were stably transfected with the pGloSensor cAMP plasmid and plated onto white 96-well microplates and grown to confluence. Cells were washed three times with PBS and incubated with 5 μM CFTRact-J027 for 10 min in the absence and presence of 100 nM forskolin. cAMP was assayed according to the manufacturer's instructions.
(§1) cAMP and cytotoxicity assays. Intracellular cAMP activity was measured using a GloSensor luminescence assay (Promega Corp., Madison, Wis., USA). FRT cells stably transfected with the pGloSensor cAMP plasmid (Promega Corp.) were cultured in white 96-well microplates (Corning Costar) overnight. Cells were then washed three times with PBS and incubated with 5 μM test compound for 10 min in the absence and presence of 100 nM forskolin.

[4] = test system: FRT cells; experiment: Cytotoxicity, Alamar Blue assay; assay type: cell-based, rat; settings: 20 μM
Procedure: (§2) Chronic administration and toxicity studies.
as §1

[5] = Ocular toxicity after chronic topical dosing (slit-lamp, lissamine green); assay type: in vivo; settings: chronically treated mice
Procedure: Lissamine green staining. To assess corneal epithelial disruption, 5 μL of lissamine green (LG) dye (1%) was applied to the ocular surface of isofluorane-anesthetized mice. Photographs of the eye were taken using a Nikon Digital camera adapted to an Olympus Zoom Stereo Microscope (Olympus, Center Valley, Pa., USA). Each corneal quadrant was scored on a 3-point scale by one blinded, trained observer, with the extent of staining in each quadrant classified as: 0, no staining; 1, sporadic (involving <25% of the total surface) staining; grade 2, diffuse punctate staining (25-75%); and grade 3, coalesced punctate staining (>75%). The total grade is reported as the sum of scores from all four quadrants, ranging from 0 to 12.

[6] = test system: loperamide-induced mouse model of constipation; experiment: Loperamide-induced mouse model of constipation
[7] = 7-day chronic administration toxicity study; assay type: in vivo, mouse
Source text: as §2

[8] = test system: tear secretion; experiment: Tear secretion (phenol red thread); assay type: in vivo, mouse; settings: single topical dose, for (at least) four hours

## Nc1ccc([N+](=O)[O-])cc1-c1nc2ccccc2n(Cc2ccccc2)c1=O [CFTRact-J027, 3-(2-amino-5-nitrophenyl)-1-benzylquinoxalin-2(1H)-one]
[1]
  CFTR activation (in words): fully activated CFTR chloride conductance
[2]
  intestinal fluid absorption: did not affect
[3]
  cellular cAMP elevation, compound alone: without causing elevation of cytoplasmic cAMP; also recorded: does not elevate cellular cAMP
[3]; forskolin 100 nM
  cAMP when added together with forskolin: does not further increase cAMP
[4]
  cytotoxicity: did not show cytotoxicity
[5]
  LG staining, corneal or conjunctival epithelial disruption: no corneal or conjunctival epithelial disruption
  ocular toxicity by slit-lamp evaluation: no signs of ocular toxicity
[6]; intraperitoneal 10 mg/kg, loperamide-treated mice, 3 h
  stool weight, pellet number and water content: normalizes stool output and water content
[6]; intraperitoneal, non-loperamide-treated mice
  stool output or water content in control mice: did not affect
[6]; loperamide model, CF mice
  effect in cystic fibrosis mice lacking functional CFTR: without effect
[6]; oral 10 mg/kg for 7 days, loperamide 1 h after final dose
  efficacy after chronic administration: remained effective
[6]; oral administration (10 mg/kg, 1 h prior to loperamide), 10 mg/kg
  stool output and water content: normalized stool output and water content; also recorded: effective in normalizing stool output and water content
[7]; 7-day study, 10 mg/kg oral, 10 mg/kg
  in vivo toxicity after chronic administration: did not show significant; also recorded: without apparent toxicity
[7]; 7-day treated mice
  major serum chemistry and blood parameters: did not affect
[8]
  increase of tear fluid secretion: approximately two-fold
